For test [1], the system named is food intake in freely-feeding rats. The settings on record: central administration, 4 hour time period; cited from earlier work.
Another test deals with orexin receptors. The experiment in a line: Rat sleep/EEG studies after central administration. Format: in vivo. The settings on record: central administration at the onset of the normal sleep period. From the text:
Therefore antagonists of its receptor may be useful in the treatment of sleep disorders including insomnia.

As for “orexin-A: "orexin-A, an agonist of the orexin receptors"; "Human orexin-A has the amino acid sequence: pyroGlu Pro Leu Pro Asp Cys Cys Arg Gln Lys Thr Cys..."”, in test [1], the “increase in food intake over control rats receiving vehicle” value is on record as “approximately four-fold”. In addition, the “effect on arousal and sleep” value in the test with orexin receptors was “dose-related increase in arousal”.

Values taken from patent publication US6677354B2, “Piperdines for use as orexin receptor antagonists” (SmithKline Beecham p.l.c., priority 2000, dated 2004).
